#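 Test compounds were applied to cells in 96-well plates for 48 hours at 5 doses. GI50: concentration for 50% inhibition of growth.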 Activity calls are given as the source filed them. Rule as the data show it: active = GI50 up to about 1.1 µM and inactive = higher.
# Columns and labels:
# Test in all cases: NCI-60 cell line screen, 48 h
# SF-268 = tested on: SF-268
# RPMI-8226 = tested on: RPMI-8226
# LOX IMVI = tested on: LOX IMVI
# UACC-62 = tested on: UACC-62
# CAKI-1 = tested on: CAKI-1
# DMS-114 = tested on: DMS-114
# SR = tested on: SR
# U-251 = tested on: U-251
# IGROV-1 = tested on: IGROV-1
# SK-MEL-5 = tested on: SK-MEL-5
# HT-29 = tested on: HT-29
# KM12 = tested on: KM12
# KM-20L2 = tested on: KM-20L2
# SNB-78 = tested on: SNB-78
# A549 = tested on: A549
# HCT-15 = tested on: HCT-15
# NCI-H460 = tested on: NCI-H460
# A498 = tested on: A498
# HL-60 = tested on: HL-60
# CCRF-CEM = tested on: CCRF-CEM
# MOLT-4 = tested on: MOLT-4
# UO-31 = tested on: UO-31
# OVCAR-3 = tested on: OVCAR-3
# DLD-1 = tested on: DLD-1
# SK-MEL-28 = tested on: SK-MEL-28
# HOP-92 = tested on: HOP-92
# HCT-116 = tested on: HCT-116
# SF-295 = tested on: SF-295
# SNB-19 = tested on: SNB-19
# Malme-3M = tested on: Malme-3M
# SK-OV-3 = tested on: SK-OV-3
# SW-620 = tested on: SW-620
# 786-0 = tested on: 786-0
# LXFL 529 = tested on: LXFL 529
# K562 = tested on: K562
# OVCAR-5 = tested on: OVCAR-5
# EKVX = tested on: EKVX
# TK-10 = tested on: TK-10
# HOP-18 = tested on: HOP-18
# NCI-H522 = tested on: NCI-H522
# UACC-257 = tested on: UACC-257
# M14 = tested on: M14
# DMS-273 = tested on: DMS-273
# NCI-H23 = tested on: NCI-H23
# SK-MEL-2 = tested on: SK-MEL-2
# OVCAR-8 = tested on: OVCAR-8
# XF498 = tested on: XF498
# HOP-62 = tested on: HOP-62
# SF-539 = tested on: SF-539
# M19-MEL = tested on: M19-MEL
# SNB-75 = tested on: SNB-75
# ACHN = tested on: ACHN
# RXF 393 = tested on: RXF 393
# COLO 205 = tested on: COLO 205
# HCC 2998 = tested on: HCC 2998
# SN12C = tested on: SN12C
# OVCAR-4 = tested on: OVCAR-4
smiles,measurement,setting,value
Cc1cc(=O)oc2c(C)c(OCCCOc3ccc4c(C)cc(=O)oc4c3C)ccc12,GI50,SF-268,> 100 µM (inactive)
same,GI50,RPMI-8226,> 100 µM (inactive)
same,GI50,LOX IMVI,> 100 µM (inactive)
same,GI50,UACC-62,> 100 µM (inactive)
same,GI50,CAKI-1,> 100 µM (inactive)
same,GI50,DMS-114,> 100 µM (inactive)
same,GI50,SR,> 100 µM (inactive)
same,GI50,U-251,> 100 µM (inactive)
same,GI50,IGROV-1,> 100 µM (inactive)
same,GI50,SK-MEL-5,> 100 µM (inactive)
same,GI50,HT-29,> 100 µM (inactive)
same,GI50,KM12,> 100 µM (inactive)
same,GI50,KM-20L2,> 100 µM (inactive)
same,GI50,SNB-78,> 100 µM (inactive)
same,GI50,A549,> 100 µM (inactive)
same,GI50,HCT-15,> 100 µM
same,GI50,NCI-H460,> 100 µM (inactive)
same,GI50,A498,> 100 µM (inactive)
same,GI50,HL-60,> 100 µM (inactive)
same,GI50,CCRF-CEM,> 100 µM (inactive)
same,GI50,MOLT-4,> 100 µM (inactive)
same,GI50,UO-31,> 100 µM (inactive)
same,GI50,OVCAR-3,> 100 µM (inactive)
same,GI50,DLD-1,> 100 µM (inactive)
same,GI50,SK-MEL-28,> 100 µM (inactive)
same,GI50,HOP-92,65.9 µM (inactive)
same,GI50,HCT-116,> 100 µM (inactive)
same,GI50,SF-295,> 100 µM (inactive)
same,GI50,SNB-19,> 100 µM (inactive)
same,GI50,Malme-3M,> 100 µM (inactive)
same,GI50,SK-OV-3,> 100 µM (inactive)
same,GI50,SW-620,> 100 µM (inactive)
same,GI50,786-0,> 100 µM (inactive)
same,GI50,LXFL 529,> 100 µM (inactive)
same,GI50,K562,> 100 µM (inactive)
same,GI50,OVCAR-5,> 100 µM (inactive)
same,GI50,EKVX,> 100 µM (inactive)
same,GI50,TK-10,> 100 µM (inactive)
same,GI50,HOP-18,> 100 µM (inactive)
same,GI50,NCI-H522,> 100 µM (inactive)
same,GI50,UACC-257,> 100 µM (inactive)
same,GI50,M14,> 100 µM (inactive)
same,GI50,DMS-273,> 100 µM (inactive)
same,GI50,NCI-H23,> 100 µM (inactive)
same,GI50,SK-MEL-2,> 100 µM (inactive)
same,GI50,OVCAR-8,> 100 µM (inactive)
same,GI50,XF498,> 100 µM (inactive)
same,GI50,HOP-62,> 100 µM (inactive)
same,GI50,SF-539,> 100 µM (inactive)
same,GI50,M19-MEL,> 100 µM (inactive)
CCOC(=O)CCC(=O)C1c2cccc(O)c2C(=O)c2c(O)cccc21,GI50,SF-268,0.908 µM (active)
same,GI50,LOX IMVI,0.604 µM (active)
same,GI50,UACC-62,0.395 µM (active)
same,GI50,CAKI-1,2.36 µM (inactive)
same,GI50,DMS-114,0.387 µM (active)
same,GI50,SNB-75,0.877 µM (active)
same,GI50,SR,2.24 µM (inactive)
same,GI50,U-251,0.301 µM (active)
same,GI50,IGROV-1,1.87 µM (inactive)
same,GI50,ACHN,1.43 µM (inactive)
same,GI50,SK-MEL-5,0.226 µM (active)
same,GI50,HT-29,2.74 µM (inactive)
same,GI50,KM12,0.652 µM (active)
same,GI50,SNB-78,2.04 µM (inactive)
same,GI50,A549,0.61 µM (active)
same,GI50,RXF 393,0.71 µM (active)
same,GI50,NCI-H460,0.26 µM (active)
same,GI50,COLO 205,2.01 µM (inactive)
same,GI50,HL-60,0.223 µM (active)
same,GI50,CCRF-CEM,1.1 µM (active)
same,GI50,MOLT-4,2.31 µM (inactive)
same,GI50,UO-31,0.356 µM (active)
same,GI50,OVCAR-3,0.942 µM (active)
same,GI50,DLD-1,1.69 µM (inactive)
same,GI50,SK-MEL-28,1.33 µM (inactive)
same,GI50,HOP-92,1.49 µM (inactive)
same,GI50,HCT-116,1.31 µM (inactive)
same,GI50,SF-295,0.644 µM (active)
same,GI50,SNB-19,1.56 µM (inactive)
same,GI50,Malme-3M,1.78 µM (inactive)
same,GI50,SW-620,0.6 µM (active)
same,GI50,786-0,1.74 µM (inactive)
same,GI50,K562,0.37 µM (active)
same,GI50,OVCAR-5,1.75 µM (inactive)
same,GI50,HCC 2998,0.537 µM (active)
same,GI50,TK-10,2.38 µM (inactive)
same,GI50,HOP-18,1.77 µM (inactive)
same,GI50,NCI-H522,0.408 µM (active)
same,GI50,SN12C,1.33 µM (inactive)
same,GI50,UACC-257,1.69 µM (inactive)
same,GI50,M14,0.566 µM (active)
same,GI50,DMS-273,1.28 µM (inactive)
same,GI50,NCI-H23,1.37 µM (inactive)
same,GI50,OVCAR-4,0.611 µM (active)
same,GI50,OVCAR-8,1.58 µM (inactive)
same,GI50,XF498,0.236 µM (active)
same,GI50,HOP-62,1.73 µM (inactive)
same,GI50,SF-539,0.411 µM (active)
same,GI50,M19-MEL,0.566 µM (active)

# Reference: ChEMBL document CHEMBL1201862, “PubChem BioAssay data set” (2004)
